# Reference: the supplement of paper PMC10307832
# Experiments:
# Experiment in all cases: relative viability (nuclei count vs DMSO), 5 days (fraction); higher = more cells survive
# LU99A = system: LU99A
# Summary of the method: (§1)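 Relative viability was taken as the ratio of nuclei in treated wells to nuclei in vehicle wells. Lung cancer cell lines in 1536-well plates received compounds by pin tool one day after seeding, either one drug alone or a fixed anchor-drug dose plus five library-drug doses (not always all listed) in √10 steps. Nuclei were counted on 4× images after 5 days of treatment, and values are medians of duplicate plates.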
# COR-L23 = system: COR-L23
# Summary of the method: as §1
# NCI-H441 = system: NCI-H441
# Summary of the method: as §1
# NCI-H1563 = system: NCI-H1563
# Summary of the method: as §1
# NCI-H838 = system: NCI-H838
# Summary of the method: as §1
# BEN = system: BEN
# Summary of the method: as §1
# NCI-H1651 = system: NCI-H1651
# Summary of the method: as §1
# LOU-NH91 = system: LOU-NH91
# Summary of the method: as §1
# NCI-H1437 = system: NCI-H1437
# Summary of the method: as §1
# NCI-H1793 = system: NCI-H1793
# Summary of the method: as §1
# NCI-H2085 = system: NCI-H2085
# Summary of the method: as §1
# SK-LU-1 = system: SK-LU-1
# Summary of the method: as §1
# NCI-H2023 = system: NCI-H2023
# Summary of the method: as §1
# CAL-12T = system: CAL-12T
# Summary of the method: as §1
# NCI-H1650 = system: NCI-H1650
# Summary of the method: as §1
# NCI-H1355 = system: NCI-H1355
# Summary of the method: as §1
# NCI-H1975 = system: NCI-H1975
# Summary of the method: as §1
# NCI-H2342 = system: NCI-H2342
# Summary of the method: as §1
# NCI-H460 = system: NCI-H460
# Summary of the method: as §1
# NCI-H1734 = system: NCI-H1734
# Summary of the method: as §1
# NCI-H358 = system: NCI-H358
# Summary of the method: as §1
compound,measurement,setting,value
O=c1cc(-c2cccc3c2Sc2ccccc2S3)oc(N2CCOCC2)c1 + CCNC(=O)c1noc(-c2cc(C(C)C)c(O)cc2O)c1-c1ccc(CN2CCOCC2)cc1 [Luminespib] (partner 0.01 µM),relative viability,LU99A; first compound 0.08 µM,0.211
same,relative viability,LU99A; first compound 0.253 µM,0.219
same,relative viability,LU99A; first compound 0.8 µM,0.259
same,relative viability,LU99A; first compound 2.53 µM,0.221
same,relative viability,LU99A; first compound 8 µM,0.306
same,relative viability,COR-L23; first compound 0.08 µM,0.863
same,relative viability,COR-L23; first compound 0.253 µM,0.854
same,relative viability,COR-L23; first compound 0.8 µM,0.837
same,relative viability,COR-L23; first compound 2.53 µM,0.78
same,relative viability,COR-L23; first compound 8 µM,0.703
same,relative viability,NCI-H441; first compound 0.08 µM,0.331
same,relative viability,NCI-H441; first compound 0.253 µM,0.314
same,relative viability,NCI-H441; first compound 0.8 µM,0.35
same,relative viability,NCI-H441; first compound 2.53 µM,0.407
same,relative viability,NCI-H441; first compound 8 µM,0.281
same,relative viability,NCI-H1563; first compound 0.08 µM,0.708
same,relative viability,NCI-H1563; first compound 0.253 µM,0.567
same,relative viability,NCI-H1563; first compound 0.8 µM,0.491
same,relative viability,NCI-H1563; first compound 2.53 µM,0.491
same,relative viability,NCI-H1563; first compound 8 µM,0.497
same,relative viability,NCI-H838; first compound 0.08 µM,0.277
same,relative viability,NCI-H838; first compound 0.253 µM,0.264
same,relative viability,NCI-H838; first compound 0.8 µM,0.371
same,relative viability,NCI-H838; first compound 2.53 µM,0.313
same,relative viability,NCI-H838; first compound 8 µM,0.23
same,relative viability,BEN; first compound 0.08 µM,0.223
same,relative viability,BEN; first compound 0.253 µM,0.435
same,relative viability,BEN; first compound 0.8 µM,0.294
same,relative viability,BEN; first compound 2.53 µM,0.271
same,relative viability,BEN; first compound 8 µM,0.387
same,relative viability,NCI-H1651; first compound 0.08 µM,0.81
same,relative viability,NCI-H1651; first compound 0.253 µM,0.93
same,relative viability,NCI-H1651; first compound 0.8 µM,0.889
same,relative viability,NCI-H1651; first compound 2.53 µM,0.807
same,relative viability,NCI-H1651; first compound 8 µM,0.791
same,relative viability,LOU-NH91; first compound 0.08 µM,0.327
same,relative viability,LOU-NH91; first compound 0.253 µM,0.43
same,relative viability,LOU-NH91; first compound 0.8 µM,0.339
same,relative viability,LOU-NH91; first compound 2.53 µM,0.354
same,relative viability,LOU-NH91; first compound 8 µM,0.357
same,relative viability,NCI-H1437; first compound 0.08 µM,1.08
same,relative viability,NCI-H1437; first compound 0.253 µM,1.29
same,relative viability,NCI-H1437; first compound 0.8 µM,1.28
same,relative viability,NCI-H1437; first compound 2.53 µM,1.15
same,relative viability,NCI-H1437; first compound 8 µM,1.21
same,relative viability,NCI-H1793; first compound 0.08 µM,0.168
same,relative viability,NCI-H1793; first compound 0.253 µM,0.299
same,relative viability,NCI-H1793; first compound 0.8 µM,0.231
same,relative viability,NCI-H1793; first compound 2.53 µM,0.17
same,relative viability,NCI-H1793; first compound 8 µM,0.153
same,relative viability,NCI-H2085; first compound 0.08 µM,0.408
same,relative viability,NCI-H2085; first compound 0.253 µM,0.526
same,relative viability,NCI-H2085; first compound 0.8 µM,0.39
same,relative viability,NCI-H2085; first compound 2.53 µM,0.437
same,relative viability,NCI-H2085; first compound 8 µM,0.354
same,relative viability,SK-LU-1; first compound 0.08 µM,0.192
same,relative viability,SK-LU-1; first compound 0.253 µM,0.186
same,relative viability,SK-LU-1; first compound 0.8 µM,0.209
same,relative viability,SK-LU-1; first compound 2.53 µM,0.178
same,relative viability,SK-LU-1; first compound 8 µM,0.183
same,relative viability,NCI-H2023; first compound 0.08 µM,0.58
same,relative viability,NCI-H2023; first compound 0.253 µM,0.949
same,relative viability,NCI-H2023; first compound 0.8 µM,0.601
same,relative viability,NCI-H2023; first compound 2.53 µM,0.856
same,relative viability,NCI-H2023; first compound 8 µM,0.499
same,relative viability,CAL-12T; first compound 0.08 µM,0.277
same,relative viability,CAL-12T; first compound 0.253 µM,0.708
same,relative viability,CAL-12T; first compound 0.8 µM,0.506
same,relative viability,CAL-12T; first compound 2.53 µM,0.299
same,relative viability,CAL-12T; first compound 8 µM,0.207
same,relative viability,NCI-H1650; first compound 0.08 µM,0.189
same,relative viability,NCI-H1650; first compound 0.253 µM,0.199
same,relative viability,NCI-H1650; first compound 0.8 µM,0.199
same,relative viability,NCI-H1650; first compound 2.53 µM,0.186
same,relative viability,NCI-H1650; first compound 8 µM,0.209
same,relative viability,NCI-H1355; first compound 0.08 µM,0.847
same,relative viability,NCI-H1355; first compound 0.253 µM,0.641
same,relative viability,NCI-H1355; first compound 0.8 µM,0.722
same,relative viability,NCI-H1355; first compound 2.53 µM,0.73
same,relative viability,NCI-H1355; first compound 8 µM,0.605
same,relative viability,NCI-H1975; first compound 0.08 µM,0.121
same,relative viability,NCI-H1975; first compound 0.253 µM,0.167
same,relative viability,NCI-H1975; first compound 0.8 µM,0.15
same,relative viability,NCI-H1975; first compound 2.53 µM,0.231
same,relative viability,NCI-H1975; first compound 8 µM,0.169
same,relative viability,NCI-H2342; first compound 0.08 µM,0.676
same,relative viability,NCI-H2342; first compound 0.253 µM,0.68
same,relative viability,NCI-H2342; first compound 0.8 µM,0.715
same,relative viability,NCI-H2342; first compound 2.53 µM,0.663
same,relative viability,NCI-H2342; first compound 8 µM,0.731
same,relative viability,NCI-H460; first compound 0.08 µM,0.0288
same,relative viability,NCI-H460; first compound 0.253 µM,0.0357
same,relative viability,NCI-H460; first compound 0.8 µM,0.0367
same,relative viability,NCI-H460; first compound 2.53 µM,0.0306
same,relative viability,NCI-H460; first compound 8 µM,0.0332
same,relative viability,NCI-H1734; first compound 0.08 µM,0.195
same,relative viability,NCI-H1734; first compound 0.253 µM,0.175
same,relative viability,NCI-H1734; first compound 0.8 µM,0.228
same,relative viability,NCI-H1734; first compound 8 µM,0.2
same,relative viability,NCI-H358; first compound 0.08 µM,0.154
same,relative viability,NCI-H358; first compound 0.253 µM,0.388
same,relative viability,NCI-H358; first compound 0.8 µM,0.329
same,relative viability,NCI-H358; first compound 2.53 µM,0.375
same,relative viability,NCI-H358; first compound 8 µM,0.292
